These results are taken from patent US7074789B2, “Kinase inhibitors” (Amgen Inc., priority 1999, dated 2006).

Like-named read-outs stand apart in the source and are kept apart here.

Holding throughout (assay type): biochemical
In one experiment the target is T1, Itk (Homo sapiens, UniProt Q08881).
T1 construct: Kinases are expressed as either kinase domains or full length constructs; made in house
T1 sequence (Q08881 1-620): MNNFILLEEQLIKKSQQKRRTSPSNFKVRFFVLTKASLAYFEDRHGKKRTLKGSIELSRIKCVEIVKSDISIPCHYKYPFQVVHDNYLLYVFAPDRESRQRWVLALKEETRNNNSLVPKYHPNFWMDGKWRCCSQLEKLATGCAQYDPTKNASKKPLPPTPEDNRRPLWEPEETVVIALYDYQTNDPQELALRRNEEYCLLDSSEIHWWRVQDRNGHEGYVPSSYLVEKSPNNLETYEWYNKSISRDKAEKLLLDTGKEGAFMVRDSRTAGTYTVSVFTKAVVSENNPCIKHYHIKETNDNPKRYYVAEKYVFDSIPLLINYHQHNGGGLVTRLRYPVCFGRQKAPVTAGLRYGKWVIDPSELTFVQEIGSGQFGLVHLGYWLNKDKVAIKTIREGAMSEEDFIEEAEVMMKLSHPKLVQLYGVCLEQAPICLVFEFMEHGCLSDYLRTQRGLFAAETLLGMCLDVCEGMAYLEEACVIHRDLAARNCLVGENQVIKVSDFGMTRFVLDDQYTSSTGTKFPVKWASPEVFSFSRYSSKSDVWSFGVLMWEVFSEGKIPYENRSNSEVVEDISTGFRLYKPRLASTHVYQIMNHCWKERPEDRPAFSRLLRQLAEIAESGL
The experiment in a line: Kinase inhibition assay (33P transfer), Itk. The conditions noted are these: read-out: Itk-1. The method in brief: (§1)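 Read-out: scintillation counts of 33P moved from ATP onto synthetic peptide polymer coated on the well surface, after washing with 0.5% phosphoric acid. Enzymes were tagged (GST or polyHistidine) and came from bacterial or insect-cell expression. IC50 marks 50% loss of incorporated label.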

Another experiment deals with T2, EGFR (Homo sapiens, UniProt P00533).
T2 construct: Kinases are expressed as either kinase domains or full length constructs; made in house
The experiment is described as follows: Kinase inhibition assay (33P transfer), EGFR. The note with it: Table 2, kinase inhibition class; read-out: EGFR-1. The method, boiled down: as §1

A further experiment addresses T3, AKT (Homo sapiens, UniProt Q9Y243).
T3 construct: Kinases are expressed as either kinase domains or full length constructs; made in house
The experiment in a line: Kinase inhibition assay (33P transfer), AKT. The note with it: Table 2, kinase inhibition class; read-out: AKT3-1. The method, boiled down:
(§2)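 Kinase domain or full-length constructs, GST- or polyHis-tagged, expressed in E. coli or baculovirus-High Five cells, sometimes with regulatory polypeptides. Activity measured as 33PO4 transfer from ATP to plate-bound poly(Glu,Tyr) 4:1 or poly(Arg,Ser) 3:1; after incubation, plates washed with 0.5% phosphoric acid and counted by liquid scintillation.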

The next experiment addresses T4, Lck (Homo sapiens, UniProt P06239).
T4 construct: Kinases are expressed as either kinase domains or full length constructs; made in house
The experiment in a line: Kinase inhibition assay (33P transfer), Lck. The note with it: read-out: Lck-1. The method, boiled down: as §2

A further experiment has as its target T5, Kdr (Homo sapiens, UniProt P35968).
T5 construct: Kinases are expressed as either kinase domains or full length constructs; made in house
The experiment in a line: Kinase inhibition assay (33P transfer), Kdr. The conditions noted are these: read-out: KDR-1. The method, boiled down:
as §2

A further experiment concerns the target T6, Zap-70 (Homo sapiens, UniProt P43403).
T6 construct: Kinases are expressed as either kinase domains or full length constructs; made in house
T6 sequence (P43403 1-619): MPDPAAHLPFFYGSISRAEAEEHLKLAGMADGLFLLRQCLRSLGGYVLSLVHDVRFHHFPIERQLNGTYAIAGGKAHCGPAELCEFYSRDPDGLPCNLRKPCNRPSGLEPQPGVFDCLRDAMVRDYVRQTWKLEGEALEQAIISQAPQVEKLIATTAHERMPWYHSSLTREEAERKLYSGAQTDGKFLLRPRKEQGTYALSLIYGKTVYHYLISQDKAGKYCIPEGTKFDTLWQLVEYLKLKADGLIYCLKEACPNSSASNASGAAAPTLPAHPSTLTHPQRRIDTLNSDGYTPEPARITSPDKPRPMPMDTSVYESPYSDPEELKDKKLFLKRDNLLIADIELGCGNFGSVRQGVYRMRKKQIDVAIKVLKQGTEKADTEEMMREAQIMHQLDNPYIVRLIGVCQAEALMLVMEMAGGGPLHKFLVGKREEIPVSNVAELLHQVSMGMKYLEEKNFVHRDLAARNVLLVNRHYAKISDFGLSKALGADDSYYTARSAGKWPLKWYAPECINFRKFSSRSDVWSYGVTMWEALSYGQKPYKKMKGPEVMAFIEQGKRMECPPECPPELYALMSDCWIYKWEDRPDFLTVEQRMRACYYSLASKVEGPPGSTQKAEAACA
The experiment is described as follows: Kinase inhibition assay (33P transfer), Zap-70. The note with it: read-out: Zap-1. The method in brief: as §2

Another experiment concerns the target T7, Tek (Homo sapiens, UniProt Q02763).
T7 construct: Kinases are expressed as either kinase domains or full length constructs; made in house
The experiment is described as follows: Kinase inhibition assay (33P transfer), Tek. The note with it: read-out: Tek-1. The method in brief: as §1

The target in the next experiment is T8, c-Met (Homo sapiens, UniProt P08581).
T8 construct: Kinases are expressed as either kinase domains or full length constructs; made in house
The experiment is described as follows: Kinase inhibition assay (33P transfer), c-Met. The note with it: Table 2, kinase inhibition class; read-out: Met-1. The method in brief: as §1

T5 sequence (P35968 20-1356, species assumed): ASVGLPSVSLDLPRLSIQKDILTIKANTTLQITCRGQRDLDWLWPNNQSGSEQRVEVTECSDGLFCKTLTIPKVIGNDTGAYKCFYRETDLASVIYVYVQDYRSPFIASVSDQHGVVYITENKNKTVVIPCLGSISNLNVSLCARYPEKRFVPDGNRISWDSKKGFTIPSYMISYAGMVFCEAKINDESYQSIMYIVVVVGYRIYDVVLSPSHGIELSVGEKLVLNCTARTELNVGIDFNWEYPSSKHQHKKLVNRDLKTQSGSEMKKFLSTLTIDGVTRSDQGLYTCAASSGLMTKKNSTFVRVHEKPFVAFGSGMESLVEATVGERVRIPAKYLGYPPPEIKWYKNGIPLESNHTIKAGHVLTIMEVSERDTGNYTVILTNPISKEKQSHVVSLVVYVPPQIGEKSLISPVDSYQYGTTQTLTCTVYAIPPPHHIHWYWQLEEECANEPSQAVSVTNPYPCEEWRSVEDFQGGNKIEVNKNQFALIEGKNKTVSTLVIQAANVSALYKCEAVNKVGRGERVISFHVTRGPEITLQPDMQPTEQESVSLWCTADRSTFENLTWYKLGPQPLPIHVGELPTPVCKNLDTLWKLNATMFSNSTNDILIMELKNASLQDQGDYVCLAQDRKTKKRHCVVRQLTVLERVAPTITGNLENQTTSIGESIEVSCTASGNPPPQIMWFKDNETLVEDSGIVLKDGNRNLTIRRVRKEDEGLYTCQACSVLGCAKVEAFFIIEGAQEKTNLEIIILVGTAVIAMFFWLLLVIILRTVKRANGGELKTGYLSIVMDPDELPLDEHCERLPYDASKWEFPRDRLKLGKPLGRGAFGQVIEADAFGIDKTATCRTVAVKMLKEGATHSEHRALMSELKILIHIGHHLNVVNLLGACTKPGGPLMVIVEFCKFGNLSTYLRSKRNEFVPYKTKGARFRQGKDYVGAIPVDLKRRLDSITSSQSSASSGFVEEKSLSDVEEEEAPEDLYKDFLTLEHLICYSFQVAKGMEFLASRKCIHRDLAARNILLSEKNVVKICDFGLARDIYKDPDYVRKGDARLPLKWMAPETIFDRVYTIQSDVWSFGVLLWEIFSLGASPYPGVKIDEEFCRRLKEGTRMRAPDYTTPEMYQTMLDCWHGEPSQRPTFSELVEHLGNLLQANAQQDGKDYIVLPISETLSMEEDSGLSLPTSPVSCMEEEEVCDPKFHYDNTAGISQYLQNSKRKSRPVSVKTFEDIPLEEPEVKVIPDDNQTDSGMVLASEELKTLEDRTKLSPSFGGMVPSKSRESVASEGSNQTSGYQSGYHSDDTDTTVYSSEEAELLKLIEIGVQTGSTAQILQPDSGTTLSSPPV
T3 sequence (Q9Y243 whole entry, the tested form may be a part): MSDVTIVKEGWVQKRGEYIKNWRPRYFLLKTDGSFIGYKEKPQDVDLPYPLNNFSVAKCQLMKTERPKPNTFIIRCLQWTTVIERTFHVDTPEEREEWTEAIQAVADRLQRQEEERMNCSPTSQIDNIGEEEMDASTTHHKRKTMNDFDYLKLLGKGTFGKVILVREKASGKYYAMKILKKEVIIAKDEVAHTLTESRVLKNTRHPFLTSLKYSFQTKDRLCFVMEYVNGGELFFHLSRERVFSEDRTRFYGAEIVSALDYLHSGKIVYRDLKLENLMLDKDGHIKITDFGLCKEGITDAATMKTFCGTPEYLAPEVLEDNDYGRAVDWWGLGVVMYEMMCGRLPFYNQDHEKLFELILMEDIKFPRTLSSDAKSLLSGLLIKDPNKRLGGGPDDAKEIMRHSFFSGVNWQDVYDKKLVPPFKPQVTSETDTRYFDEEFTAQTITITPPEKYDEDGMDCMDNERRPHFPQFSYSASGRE
T7 sequence (Q02763 23-1124, species assumed): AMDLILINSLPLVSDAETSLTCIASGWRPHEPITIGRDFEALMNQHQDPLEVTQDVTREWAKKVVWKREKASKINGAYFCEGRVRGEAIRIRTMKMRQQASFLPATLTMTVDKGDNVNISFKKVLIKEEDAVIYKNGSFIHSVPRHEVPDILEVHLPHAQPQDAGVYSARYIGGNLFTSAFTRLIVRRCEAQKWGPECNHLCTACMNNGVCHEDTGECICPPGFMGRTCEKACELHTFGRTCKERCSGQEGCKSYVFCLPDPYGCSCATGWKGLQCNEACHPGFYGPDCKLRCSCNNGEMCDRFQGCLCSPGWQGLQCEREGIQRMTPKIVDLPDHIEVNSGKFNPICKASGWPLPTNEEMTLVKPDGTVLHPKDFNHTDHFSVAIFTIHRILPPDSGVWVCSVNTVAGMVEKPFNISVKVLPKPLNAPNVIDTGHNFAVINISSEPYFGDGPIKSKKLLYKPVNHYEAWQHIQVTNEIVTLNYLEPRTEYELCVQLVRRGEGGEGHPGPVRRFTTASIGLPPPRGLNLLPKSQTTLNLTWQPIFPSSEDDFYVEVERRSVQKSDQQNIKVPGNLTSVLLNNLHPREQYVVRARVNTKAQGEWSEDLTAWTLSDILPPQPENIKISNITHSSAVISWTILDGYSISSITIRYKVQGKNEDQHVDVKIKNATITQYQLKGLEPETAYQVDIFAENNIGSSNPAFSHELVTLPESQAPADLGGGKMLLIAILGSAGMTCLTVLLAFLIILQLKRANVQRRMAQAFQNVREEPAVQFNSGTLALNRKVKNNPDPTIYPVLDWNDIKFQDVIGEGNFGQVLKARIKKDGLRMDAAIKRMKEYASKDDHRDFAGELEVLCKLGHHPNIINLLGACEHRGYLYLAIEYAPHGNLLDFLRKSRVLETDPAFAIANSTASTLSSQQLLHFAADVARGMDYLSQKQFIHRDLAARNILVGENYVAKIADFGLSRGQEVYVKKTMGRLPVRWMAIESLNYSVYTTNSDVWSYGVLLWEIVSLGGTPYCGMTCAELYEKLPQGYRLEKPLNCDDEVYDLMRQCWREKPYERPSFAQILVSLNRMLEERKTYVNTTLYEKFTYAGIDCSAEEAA
T8 sequence (P08581 25-1390): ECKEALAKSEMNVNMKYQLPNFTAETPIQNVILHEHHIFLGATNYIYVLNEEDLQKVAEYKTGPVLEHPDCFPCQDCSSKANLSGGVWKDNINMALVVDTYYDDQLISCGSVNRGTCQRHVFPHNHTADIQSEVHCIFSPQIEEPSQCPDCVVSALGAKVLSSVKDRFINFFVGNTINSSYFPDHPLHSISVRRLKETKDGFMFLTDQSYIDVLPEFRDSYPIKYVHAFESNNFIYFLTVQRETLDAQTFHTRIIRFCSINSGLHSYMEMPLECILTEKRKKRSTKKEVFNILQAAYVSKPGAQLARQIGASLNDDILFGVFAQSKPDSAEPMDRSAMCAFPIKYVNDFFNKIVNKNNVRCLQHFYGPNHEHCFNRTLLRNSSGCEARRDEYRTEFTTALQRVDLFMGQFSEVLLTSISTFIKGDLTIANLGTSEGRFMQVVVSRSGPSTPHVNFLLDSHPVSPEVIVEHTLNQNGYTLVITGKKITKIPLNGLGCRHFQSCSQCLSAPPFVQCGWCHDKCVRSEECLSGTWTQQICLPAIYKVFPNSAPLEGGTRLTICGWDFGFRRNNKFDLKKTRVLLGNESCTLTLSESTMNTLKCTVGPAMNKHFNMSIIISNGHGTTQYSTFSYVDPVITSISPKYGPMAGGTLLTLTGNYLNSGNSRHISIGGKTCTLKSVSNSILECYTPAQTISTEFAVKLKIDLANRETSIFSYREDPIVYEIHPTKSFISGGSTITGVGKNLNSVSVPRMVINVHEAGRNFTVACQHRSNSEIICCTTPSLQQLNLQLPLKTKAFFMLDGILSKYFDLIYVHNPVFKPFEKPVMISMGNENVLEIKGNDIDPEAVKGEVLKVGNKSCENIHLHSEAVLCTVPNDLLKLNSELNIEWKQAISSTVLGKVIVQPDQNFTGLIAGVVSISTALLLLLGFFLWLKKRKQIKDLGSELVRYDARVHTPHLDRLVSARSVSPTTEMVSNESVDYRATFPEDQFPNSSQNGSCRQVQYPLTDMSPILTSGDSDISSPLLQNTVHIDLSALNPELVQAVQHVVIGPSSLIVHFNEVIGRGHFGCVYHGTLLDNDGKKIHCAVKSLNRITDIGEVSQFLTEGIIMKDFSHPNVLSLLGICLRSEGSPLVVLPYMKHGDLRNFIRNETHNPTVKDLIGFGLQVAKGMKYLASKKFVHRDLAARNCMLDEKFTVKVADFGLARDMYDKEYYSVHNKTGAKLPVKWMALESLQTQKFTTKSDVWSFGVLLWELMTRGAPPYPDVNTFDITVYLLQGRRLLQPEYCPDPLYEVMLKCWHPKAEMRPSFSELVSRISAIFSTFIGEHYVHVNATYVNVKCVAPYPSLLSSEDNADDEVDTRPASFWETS
T4 sequence (P06239 whole entry, species assumed, the tested form may be a part): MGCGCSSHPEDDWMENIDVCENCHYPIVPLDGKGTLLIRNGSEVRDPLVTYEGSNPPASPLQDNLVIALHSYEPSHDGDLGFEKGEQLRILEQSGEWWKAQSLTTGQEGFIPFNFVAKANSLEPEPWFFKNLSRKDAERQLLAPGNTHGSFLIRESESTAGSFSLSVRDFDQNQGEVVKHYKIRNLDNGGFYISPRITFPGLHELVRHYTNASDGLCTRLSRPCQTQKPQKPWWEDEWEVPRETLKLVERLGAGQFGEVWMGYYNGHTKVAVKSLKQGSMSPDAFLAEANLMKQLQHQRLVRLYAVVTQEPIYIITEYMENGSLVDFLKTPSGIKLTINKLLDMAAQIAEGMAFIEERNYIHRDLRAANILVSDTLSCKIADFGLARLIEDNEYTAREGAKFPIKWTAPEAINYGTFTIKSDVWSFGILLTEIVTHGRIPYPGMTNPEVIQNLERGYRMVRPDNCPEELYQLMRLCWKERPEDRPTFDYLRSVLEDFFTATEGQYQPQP

Regarding `COc1cc(Nc2ncnc(Nc3ccc(C(C)=O)cc3)n2)cc(OC)c1OC` [Compound 698], the IC50 on Itk is 1.01 to 6.07 µM; on EGFR, 6.07 to 8.85 µM; at AKT it was greater than 11.4 µM; on Lck it was less than 1.01 µM; at Kdr, less than 1.01 µM; on Zap-70, greater than 11.4 µM. Also, the IC50 is 8.85 to 11.4 µM on Tek and greater than 11.4 µM on c-Met.
Turning to `COc1cc(Nc2ncnc(-n3c(NCCCc4ccccc4)nc4ccccc43)n2)cc(OC)c1OC` [Compound 945], the IC50 on Itk was greater than 8.8 µM; on EGFR it was greater than 8.8 µM; at AKT, greater than 8.8 µM; on Lck it was 6.84 to 8.8 µM; at Kdr, 0.782 to 4.69 µM; on Zap-70, greater than 8.8 µM. In addition, the IC50 on Tek and on c-Met was greater than 8.8 µM throughout.
Regarding `COc1cc(Nc2ncnc(-n3c(NCc4ncccc4C)nc4ccccc43)n2)cc(OC)c1OC` [Compound 941], the IC50 at Itk, at EGFR, at AKT, at Lck, on Kdr and at Zap-70 was greater than 9.03 µM in each case. The IC50 at Tek and on c-Met was greater than 9.03 µM throughout.
In the case of `CC(C)(C)OC(=O)NCc1cccc(Nc2ncnc(Nc3cc(-c4ccco4)n[nH]3)n2)c1` [Compound 985], the IC50 was 5.35 to 7.8 µM at Itk; 0.892 to 5.35 µM on EGFR; greater than 10 µM on AKT; 0.892 to 5.35 µM at Lck; 0.892 to 5.35 µM on Kdr; greater than 10 µM on Zap-70. Moreover, the IC50 at Tek and on c-Met was 5.35 to 7.8 µM throughout.
For the compound `COc1cc(Nc2ncnc(Nc3nc(-c4ccccc4)cs3)n2)cc(OC)c1OC` [Compound 444], the IC50 at Itk (Table 3), at EGFR, at AKT, on Lck (Table 3), at Kdr (Table 3) and at Zap-70 (Table 3) was greater than 10.3 µM throughout. Besides, the IC50 on Tek and at c-Met was greater than 10.3 µM in each case.
`O=c1[nH]c2ccccc2n1-c1ncnc(Nc2ccc(Br)c(Cl)c2)n1` [Compound 483]: the IC50 at Itk was greater than 10.8 µM; on EGFR, 0.958 to 5.75 µM; at AKT it was greater than 10.8 µM; on Lck, 5.75 to 8.38 µM; on Kdr, 0.958 to 5.75 µM; on Zap-70, 0.958 to 5.75 µM. Also, the IC50 was 0.958 to 5.75 µM on Tek and greater than 10.8 µM on c-Met.
With `Nc1nc2ccccc2n1-c1ncnc(Nc2ccc(S(N)(=O)=O)cc2)n1` [Compound 923], the IC50 was 1.05 to 6.28 µM at Itk; greater than 11.8 µM at EGFR; greater than 11.8 µM on AKT; 9.15 to 11.8 µM on Lck; less than 1.05 µM at Kdr; greater than 11.8 µM on Zap-70. The IC50 is greater than 11.8 µM at Tek and 1.05 to 6.28 µM at c-Met.
For the compound `COc1cc(Nc2ncnc(-n3c(NCCc4cccnc4)nc4ccccc43)n2)cc(OC)c1OC` [Compound 947], the IC50 at Itk is 4.81 to 7.02 µM; on EGFR, greater than 9.03 µM; at AKT, greater than 9.03 µM; on Lck it was greater than 9.03 µM; at Kdr, less than 0.802 µM; on Zap-70, greater than 9.03 µM. In addition, the IC50 on Tek and at c-Met was greater than 9.03 µM each time.
For `COc1cc(Nc2ncnc(-c3cccc4ccccc34)n2)cc(OC)c1OC` [Compound 611], the IC50 on Itk is 9.01 to 11.6 µM; at EGFR it was greater than 11.6 µM; on AKT, greater than 11.6 µM; on Lck it was 1.03 to 6.18 µM; on Kdr, 1.03 to 6.18 µM; at Zap-70, greater than 11.6 µM. Further, the figures for the IC50 at Tek and on c-Met were 6.18 to 9.01 µM and greater than 11.6 µM, respectively.
As for `COc1cc(Nc2ncnc(-c3ccc(NCCCO)nc3)n2)cc(OC)c1OC` [Compound 497], the IC50 was greater than 10.9 µM on Itk; greater than 10.9 µM on EGFR; greater than 10.9 µM at AKT; 8.49 to 10.9 µM on Lck; less than 0.97 µM at Kdr; greater than 10.9 µM at Zap-70. Also, the IC50 on Tek and on c-Met was greater than 10.9 µM throughout.
As for `O=c1[nH]c2ccccc2n1-c1ncnc(Nc2ccc(OC(F)(F)F)cc2)n1` [Compound 462], the IC50 at Itk (Table 3) was greater than 11.6 µM; at EGFR, greater than 11.6 µM; at AKT, greater than 11.6 µM; on Lck (Table 3), 9.01 to 11.6 µM; at Kdr (Table 3), greater than 11.6 µM; on Zap-70 (Table 3), 6.18 to 9.01 µM. The IC50 at Tek lay in the range of 6.18 to 9.01 µM; at c-Met it was 9.01 to 11.6 µM.
In the case of `COc1cc(Nc2ncnc(-n3c(NCc4ccc(Br)cc4)nc4ccccc43)n2)cc(OC)c1OC` [Compound 940], the IC50 on Itk is greater than 8 µM; on EGFR it was greater than 8 µM; at AKT it was greater than 8 µM; at Lck, 6.22 to 8 µM; on Kdr, less than 0.711 µM; at Zap-70, greater than 8 µM. The IC50 at Tek and at c-Met was greater than 8 µM in each case.
For the compound `COc1cc(Nc2ncnc(-c3cccnc3Cl)n2)cc(OC)c1OC` [Compound 1075], the IC50 is greater than 12 µM at Itk; greater than 12 µM at EGFR; greater than 12 µM at AKT; greater than 12 µM at Lck; 9.36 to 12 µM on Kdr; greater than 12 µM at Zap-70. Besides, the IC50 on Tek and at c-Met was greater than 12 µM each time.
`Nc1nc2ccccc2n1-c1ncnc(Nc2ccc(Cl)c(Cl)c2)n1` [Compound 528]: the IC50 on Itk, on EGFR, on AKT, on Lck, on Kdr and at Zap-70 was 1.07 to 6.45 µM throughout. Moreover, the IC50 at Tek and at c-Met was 1.07 to 6.45 µM each time.
Take `COc1cc(Nc2ncnc(Nc3cc(-c4cccc(Cl)c4)n[nH]3)n2)cc(OC)c1OC` [Compound 495]: the IC50 at Itk was greater than 9.91 µM; on EGFR it was 0.881 to 5.29 µM; at AKT it was greater than 9.91 µM; on Lck, 5.29 to 7.71 µM; on Kdr, 7.71 to 9.91 µM; at Zap-70 it was greater than 9.91 µM. The IC50 on Tek is greater than 9.91 µM; at c-Met it was 0.881 to 5.29 µM.
For `COc1cc(Nc2ncnc(N[C@@H](CO)c3ccccc3)n2)cc(OC)c1OC` [Compound 427], the IC50 on Itk (Table 3), at EGFR, on AKT, at Lck (Table 3), on Kdr (Table 3) and at Zap-70 (Table 3) was greater than 11.3 µM each time. The IC50 on Tek and on c-Met was greater than 11.3 µM throughout.
Regarding `COc1cc(Nc2ncnc(-n3c(N[C@H](C)c4ccccc4)nc4ccccc43)n2)cc(OC)c1OC` [Compound 1034], the IC50 on Itk is greater than 9.04 µM; at EGFR it was greater than 9.04 µM; at AKT, greater than 9.04 µM; on Lck it was 0.804 to 4.82 µM; on Kdr it was less than 0.804 µM; on Zap-70, greater than 9.04 µM. Moreover, the IC50 is greater than 9.04 µM on Tek and 7.03 to 9.04 µM on c-Met.
